This note sets out measurements from article PMC11628855 (Acta Pharmaceutica Sinica. B, 2024).

The structures appear in SMILES notation.

The assay deals with T1, GacS (12–166)-His (Pseudomonas aeruginosa, UniProt G3XD98).
T1 sequence (G3XD98 12-166): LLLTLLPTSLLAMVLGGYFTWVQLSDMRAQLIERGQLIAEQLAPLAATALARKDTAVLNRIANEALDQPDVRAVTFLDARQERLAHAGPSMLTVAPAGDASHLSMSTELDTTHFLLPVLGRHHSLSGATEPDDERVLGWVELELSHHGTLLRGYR
The experiment in a line: microscale thermophoresis. The class given is binding. (In general: MST reads how a fluorescent partner responds to local heating, with and without ligand.)

For orientation: Kd means the constant that tells how readily two partners part at equilibrium. A higher Kd goes with a looser complex.

Consider `CCCCCCNC(=O)CNc1nc2ccc(OC)cc2s1` [SN12, N-Hexyl-2-((6-methoxybenzo[d]thiazol-2-yl)amino)acetamide], for which the affinity, expressed as Kd, was 12.8 ± 0.68 µM.
